Measured values published in patent KR20210021686A, “비천연 아미노산-결합 단백질, 및 이를 코딩하는 유전자가 도입된 형질전환체” (priority 2019, dated 2021).

Target: T1, Escherichia coli leucine-binding protein (류신-결합 단백질, LBP), wild type (WT), SEQ ID NO: 46, YFP-LBP fusion sensor (Escherichia coli, UniProt P04816)
T1 construct: made in house; host or cells: E. coli C321.ΔA (co-transformed with pEvol-CouA-RS)
Test: FRET titration, dissociation constant (Table 1), WT LBP
Conditions: 50 mM NaH2PO4, 50 mM NaCl, pH 9.0

T1 sequence (P04816 24-369): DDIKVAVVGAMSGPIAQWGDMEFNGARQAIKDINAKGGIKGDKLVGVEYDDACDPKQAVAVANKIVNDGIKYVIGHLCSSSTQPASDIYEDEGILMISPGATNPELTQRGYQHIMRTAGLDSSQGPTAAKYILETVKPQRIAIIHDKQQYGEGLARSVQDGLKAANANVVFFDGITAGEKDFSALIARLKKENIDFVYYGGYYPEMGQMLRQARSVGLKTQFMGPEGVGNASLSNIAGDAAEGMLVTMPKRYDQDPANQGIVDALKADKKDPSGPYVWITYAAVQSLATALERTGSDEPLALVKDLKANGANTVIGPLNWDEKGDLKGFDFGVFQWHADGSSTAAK

## CC(C)C[C@H](N)C(=O)O [L-Leu, L-류신]
  Kd: 410 nM
